# Assay results: US11319299B2, “Substituted carboxamides as inhibitors of WDR5 protein-protein binding” (PROPELLON THERAPEUTICS INC., priority 2016, dated 2022)
# Target: WDR5 (Homo sapiens (Human), UniProt P61964)
# Experiment: Surface Plasmon Resonance (SPR) assay, KD and residence time
# Type: binding
# Details: surface plasmon resonance (SPR) assay; read-out: WDR5 binding affinity (KD)
row,Compound,Kd [nM]
1,"C[C@@H]1CN(c2cc(F)c(-c3cnc(N(C)C4CCOC4)nc3)cc2NC(=O)c2c[nH]c(=O)cc2C(F)(F)F)C[C@H](C)N1C (stereo in doubt) [Example 363, N-[4-fluoro-5-[2-[methyl-[(3R)-oxolan-3-yl]amino]pyrimidin-5-yl]-2-[(3S,5R)-3,4,5-trimethylpiperazin-1-yl]phenyl]-6-oxo-4-(trifluoromethyl)-1H-pyridine-3-carboxamide]",0.634
2,"C[C@@H]1CN(c2cc(F)c(-c3cnc(N4CCOCC4)nc3)cc2NC(=O)c2cccc(N(C)C)c2)C[C@H](C)N1C [Example 126, 3-(dimethylamino)-N-[4-fluoro-5-(2-morpholin-4-ylpyrimidin-5-yl)-2-[(3R,5S)-3,4,5-trimethylpiperazin-1-yl]phenyl]benzamide]",3500
3,"C[C@@H]1CN(c2ncc(-c3cc(NC(=O)c4c[nH]c(=O)cc4C(F)F)c(N4C[C@@H](C)N(C)[C@@H](C)C4)cc3F)cn2)C[C@H](C)O1 [Example 385, 4-(difluoromethyl)-N-[4-fluoro-5-[2-[(2R,6S)-2,6-dimethylmorpholin-4-yl]pyrimidin-5-yl]-2-[(3S,5R)-3,4,5-trimethylpiperazin-1-yl]phenyl]-6-oxo-1H-pyridine-3-carboxamide]",0.72

# Results, then the compound that gave them:
row,Kd [nM],Compound
1,2.82,"CC1CN(c2cc(F)c(-c3cnc4c(c3)OCCO4)cc2NC(=O)c2c[nH]c(=O)cc2C(F)(F)F)CCN1C (stereo in doubt) [Example 241, N-[5-(2,3-dihydro-[1,4]dioxino[2,3-b]pyridin-7-yl)-4-fluoro-2-[(3R)-3,4-dimethylpiperazin-1-yl]phenyl]-6-oxo-4-(trifluoromethyl)-1H-pyridine-3-carboxamide]"
2,1.86,"CN(C)[C@@H]1CCN(c2cc(F)c(-c3ccc(N4CCOCC4)nc3)cc2NC(=O)c2c[nH]c(=O)cc2C(F)(F)F)C1 [Example 234, N-[4-fluoro-5-(6-morpholin-4-ylpyridin-3-yl)-2-[(3R)-3-(dimethylamino)pyrrolidin-1-yl]phenyl]-6-oxo-4-(trifluoromethyl)-1H-pyridine-3-carboxamide]"
3,1.4,"Cc1cc(-c2cc(NC(=O)c3c[nH]c(=O)cc3C(F)(F)F)c(N3C[C@@H](C)N(C)[C@@H](C)C3)cc2F)cnc1C#N [Example 132, N-[5-(6-cyano-5-methylpyridin-3-yl)-4-fluoro-2-[(3R,5S)-3,4,5-trimethylpiperazin-1-yl]phenyl]-6-oxo-4-(trifluoromethyl)-1H-pyridine-3-carboxamide]"
4,8.13,"CC1CN(c2cc(F)c(-c3cnc(N4CCOCC4)nc3)cc2NC(=O)c2cn(C)nc2C(F)(F)F)CCN1C (stereo in doubt) [Example 284, N-[4-fluoro-5-(2-morpholin-4-ylpyrimidin-5-yl)-2-[(3R)-3,4-dimethylpiperazin-1-yl]phenyl]-1-methyl-3-(trifluoromethyl)pyrazole-4-carboxamide]"

# Same assay, conditions: surface plasmon resonance (SPR); read-out: WDR5 binding affinity (KD)
row,Compound,Kd [nM]
1,"C[C@@H]1CN(c2cc(F)c(-c3csc(CN4CCOCC4)n3)cc2NC(=O)c2c[nH]c(=O)cc2C(F)(F)F)C[C@H](C)N1C [Example 713, N-[4-fluoro-5-[2-(morpholin-4-ylmethyl)-1,3-thiazol-4-yl]-2-[(3R,5S)-3,4,5-trimethylpiperazin-1-yl]phenyl]-6-oxo-4-(trifluoromethyl)-1H-pyridine-3-carboxamide]",2.59
2,"N-[5-[2-[4-(cyclopropylmethyl)piperazin-1-yl]pyrimidin-5-yl]-4-fluoro-2-[(3R)-3,4-dimethylpiperazin-1-yl]phenyl]-4-fluoro-2-(trifluoromethyl)benzamide [Example 560]",1.12
3,"C[C@@H]1CN(c2cc(F)c(-c3csc(C(=O)NC4CCCCC4)n3)cc2NC(=O)c2c[nH]c(=O)cc2C(F)(F)F)C[C@H](C)N1C [Example 533, N-cyclohexyl-4-[2-fluoro-5-[[6-oxo-4-(trifluoromethyl)-1H-pyridine-3-carbonyl]amino]-4-[(3R,5S)-3,4,5-trimethylpiperazin-1-yl]phenyl]-1,3-thiazole-2-carboxamide]",1.98
4,"C[C@@H]1CN(c2cc(F)c(-c3ccc(N4CCNCC4)cc3)cc2NC(=O)c2c[nH]c(=O)cc2C(F)(F)F)C[C@H](C)N1C [Example 549, N-[4-fluoro-5-(4-piperazin-1-ylphenyl)-2-[(3R,5S)-3,4,5-trimethylpiperazin-1-yl]phenyl]-6-oxo-4-(trifluoromethyl)-1H-pyridine-3-carboxamide]",0.8
5,"C[C@@H]1CN(c2cc(F)c(-c3ccc(S(C)(=O)=O)nc3)cc2NC(=O)c2c[nH]c(=O)cc2C(F)(F)F)C[C@H](C)N1C [Example 581, N-[4-fluoro-5-(6-methylsulfonylpyridin-3-yl)-2-[(3R,5S)-3,4,5-trimethylpiperazin-1-yl]phenyl]-6-oxo-4-(trifluoromethyl)-1H-pyridine-3-carboxamide]",0.768
6,"C[C@@H]1CN(c2cc(F)c(-c3ncc(C(=O)N4CCOCC4)s3)cc2NC(=O)c2c[nH]c(=O)cc2C(F)(F)F)C[C@H](C)N1C [Example 500, N-[4-fluoro-5-[5-(morpholine-4-carbonyl)-1,3-thiazol-2-yl]-2-[(3R,5S)-3,4,5-trimethylpiperazin-1-yl]phenyl]-6-oxo-4-(trifluoromethyl)-1H-pyridine-3-carboxamide]",1.85
7,"CC1CN(c2cc(F)c(-c3cnc(N4CCOCC4)nc3)cc2NC(=O)c2c[nH]c(=O)c(C(F)(F)F)c2)CCN1C (stereo in doubt) [Example 495, N-[4-fluoro-5-(2-morpholin-4-ylpyrimidin-5-yl)-2-[(3R)-3,4-dimethylpiperazin-1-yl]phenyl]-6-oxo-5-(trifluoromethyl)-1H-pyridine-3-carboxamide]",24.9
8,"C[C@@H]1CN(c2cc(F)c(-c3cncc(NC(=O)OCc4ccccc4)c3)cc2NC(=O)c2c[nH]c(=O)cc2C(F)(F)F)C[C@H](C)N1C [Example 563, benzyl N-[5-[2-fluoro-5-[[6-oxo-4-(trifluoromethyl)-1H-pyridine-3-carbonyl]amino]-4-[(3R,5S)-3,4,5-trimethylpiperazin-1-yl]phenyl]pyridin-3-yl]carbamate]",3.32
9,"C[C@@H]1CN(c2ncc(-c3cc(NC(=O)c4ccc(F)cc4C(F)(F)F)c(N4C[C@@H](C)N(C)[C@@H](C)C4)cc3F)cn2)CCO1 [Example 545, 4-fluoro-N-[4-fluoro-5-[2-[(2R)-2-methylmorpholin-4-yl]pyrimidin-5-yl]-2-[(3R,5S)-3,4,5-trimethylpiperazin-1-yl]phenyl]-2-(trifluoromethyl)benzamide]",3.4
10,"COc1cnc(N2CCC=C(c3cc(NC(=O)c4c[nH]c(=O)cc4C(F)F)c(N4C[C@@H](C)N(C)[C@@H](C)C4)cc3F)C2)nc1 [Example 645, 4-(difluoromethyl)-N-[4-fluoro-5-[1-(5-methoxypyrimidin-2-yl)-3,6-dihydro-2H-pyridin-5-yl]-2-[(3R,5S)-3,4,5-trimethylpiperazin-1-yl]phenyl]-6-oxo-1H-pyridine-3-carboxamide]",1.41
11,"O=C(Nc1cc(-c2cnc(N3CCOCC3)nc2)c(F)cc1N1CCN(C2CC2)CC1)c1c[nH]c(=O)cc1C(F)(F)F [Example 561, N-[2-(4-cyclopropylpiperazin-1-yl)-4-fluoro-5-(2-morpholin-4-ylpyrimidin-5-yl)phenyl]-6-oxo-4-(trifluoromethyl)-1H-pyridine-3-carboxamide]",23.5
12,"C[C@H]1CN(c2cc(F)c(C3=CCN(C(=O)N4CCCC4)C3)cc2NC(=O)c2c[nH]c(=O)cc2C(F)F)CCN1C [Example 629, (S)-4-(Sifluoromethyl)-N-(2-(3,4-dimethylpiperazin-1-yl)-4-fluoro-5-(1-(pyrrolidine-1-carbonyl)-2,5-dihydro-1H-pyrrol-3-yl)phenyl)-6-oxo-1,6-dihydropyridine-3-carboxamide]",2.22

# Now from value to compound:
row,Kd [nM],Compound
1,2.74,"C[C@@H]1CN(c2cc(F)c(C3=CCCN(C(=O)OC4(C)COC4)C3)cc2NC(=O)c2c[nH]c(=O)cc2C(F)(F)F)C[C@H](C)N1C [Example 489, (3-methyloxetan-3-yl) 5-[2-fluoro-5-[[6-oxo-4-(trifluoromethyl)-1H-pyridine-3-carbonyl]amino]-4-[(3R,5S)-3,4,5-trimethylpiperazin-1-yl]phenyl]-3,6-dihydro-2H-pyridine-1-carboxylate]"
2,1.99,"C[C@@H]1CN(c2cc(F)c(C3=CCN(C(=O)C4CCCCC4)CC3)cc2NC(=O)c2c[nH]c(=O)cc2C(F)(F)F)C[C@H](C)N1C [Example 569, N-[5-[1-(cyclohexanecarbonyl)-3,6-dihydro-2H-pyridin-4-yl]-4-fluoro-2-[(3R,5S)-3,4,5-trimethylpiperazin-1-yl]phenyl]-6-oxo-4-(trifluoromethyl)-1H-pyridine-3-carboxamide]"
3,1.39,"C[C@@H]1CN(c2cc(F)c(-c3ccc(N4CCOCC4)c(F)c3)cc2NC(=O)c2c[nH]c(=O)cc2C(F)F)C[C@H](C)N1C [Example 436, 4-(difluoromethyl)-N-[4-fluoro-5-(3-fluoro-4-morpholin-4-ylphenyl)-2-[(3R,5S)-3,4,5-trimethylpiperazin-1-yl]phenyl]-6-oxo-1H-pyridine-3-carboxamide]"
4,1.31,"C[C@@H]1CN(c2nccc(-c3cc(NC(=O)c4c[nH]c(=O)cc4C(F)(F)F)c(N4C[C@@H](C)N(C)[C@@H](C)C4)cc3F)n2)CCO1 (racemic) [Example 691, N-[4-fluoro-5-[2-[(2R)-2-methylmorpholin-4-yl]pyrimidin-4-yl]-2-[(3R,5S)-3,4,5-trimethylpiperazin-1-yl]phenyl]-6-oxo-4-(trifluoromethyl)-H-pyridine-3-carboxamide]"
5,2.19,"C[C@@H]1CN(c2cc(F)c(C3=CCN(C(=O)c4cnccn4)CC3)cc2NC(=O)c2c[nH]c(=O)cc2C(F)(F)F)C[C@H](C)N1C [Example 573, N-[4-fluoro-5-[1-(pyrazine-2-carbonyl)-3,6-dihydro-2H-pyridin-4-yl]-2-[(3R,5S)-3,4,5-trimethylpiperazin-1-yl]phenyl]-6-oxo-4-(trifluoromethyl)-1H-pyridine-3-carboxamide]"
6,3.18,"CC1CN(c2cc(F)c(-c3cccc(N4CCOCC4)n3)cc2NC(=O)c2ccc(F)cc2C(F)(F)F)CCN1C (stereo in doubt) [Example 673, 4-fluoro-N-[4-fluoro-5-(6-morpholin-4-ylpyridin-2-yl)-2-[(3R)-3,4-dimethylpiperazin-1-yl]phenyl]-2-(trifluoromethyl)benzamide]"
